Assay results reported in article PMC5115179 (Pharmacology Research & Perspectives, 2016).
Like-named read-outs stand apart in the source and are kept apart here.

Experiments:
mouse = tested on: mouse; parameters: method as in Martellotta et al., 1998; settings: 12.5 mg/kg i.p., ref Martellotta et al., 1998; cited from earlier work
rat [1] = tested on: rat; parameters: method as in Snead III, 1996; settings: 100-500 mg/kg i.p., ref Snead III, 1996; cited from earlier work
rat [2] = tested on: rat; parameters: method as in Pedraza et al., 2009; settings: 10 mg/kg i.p., ref Pedraza et al., 2009; cited from earlier work
in vivo = format: in vivo; settings: mouse; for half-life / Kp / AUC / CL/F / Cmax: both sexes, ip; for Kp: C57/B6, brain/serum, read-out: Brain to sera AUC ratio
Description: In pharmacokinetic studies, mice were not randomized to groups but instead assigned to treatment and time points such that there was no gender of weight bias. Studies were initiated in the morning and following treatment mice were euthanized by CO2 asphyxiation and cervical dislocation at predetermined time points (0.25, 0.5, 1, 2, 4, 8, 12, and 24 h) (n = 3–4 animals per time point). Blood (via cardiac puncture), brain, liver, and kidney were rapidly collected, tissues were snap‐frozen in liquid nitrogen, and stored at −80°C prior to further analysis. Sera (20–100 μL) was obtained by low‐speed centrifugation at 2000 × g for 10 min at 6°C. Tissues were suspended in phosphate‐buffered saline (PBS, 1:5, w/v) and homogenized via mechanical homogenization before preparation for LC‐MS/MS analysis.
Samples (3 μL) were injected onto a Kinetex PFP (50 × 2.1 mm, 1.7 μm particle size) UPLC column and eluted with a binary gradient consisting of water with 0.1% formic acid (mobile phase A) and methanol with 0.1% formic acid (mobile phase B). Initially, 5% mobile phase B was held for 0.4 min at a flow rate of 0.3 mL/min, then increased linearly to 85% over 2.6 min. This composition was held constant for 0.5 min then returned to initial conditions within 6 sec and equilibrated for an additional 1.8 min. Eluent was directed to waste for the initial 0.4 min then to an ABI Sciex 6500 Qtrap tandem mass spectrometer. […] Where necessary, samples were diluted in blank matrices for analysis. Methods were developed using the criteria presented in the FDA bioanalytical guidance document (www.fda.gov, 2013).
Pharmacokinetic outcomes were obtained via standard noncompartmental methods using Kinetica (version 5.1, Thermo Fisher Scientific, Waltham, MA). The maximum concentration (C max) was obtained directly from the concentration–time profiles. Area under the concentration–time curve (AUC) from time zero to the last collected time point was determined using the trapezoidal method with linear up/log down interpolation. For sera and urine, data above the limit of detection but below the LLOQ were computed as LLOQ/2 (7 nmol/L, 7.5 μg/mL, respectively) to allow for the recovery of the terminal half‐life as reported previously (Beal 2001). To obtain estimates of variability around the mean of AUC and C max, the method of Bailer–Satterwaithe was employed due to the destructive sampling approach (Nedelman et al. 1995). Furthermore, as a result of the destructive sampling approach outcomes for half‐life, apparent volume of distribution and apparent clearance could not be reported with a term for uncertainty.

[3] = 100 mg/kg i.p., tissue density assumed equal to water
[4] = 300 mg/kg i.p., tissue density assumed equal to water
[5] = 500 mg/kg i.p., tissue density assumed equal to water

Compound: O=C(O)/C=C1\CCCc2ccccc2C1O (stereo not shown) [NCS‐382, 6,7,8,9‐tetrahydro‐5‐hydroxy‐5H‐benzo‐cyclohept‐6‐ylideneacetic acid]
- abuse potential of GHB (mouse): GHB was shown to have abuse potential, which was blocked by NCS-382.
- two chemically induced models for absence seizures (rat [1]): NCS-382 was protective against two chemically induced models for absence seizures.
- neurological damage and working-memory impairment induced by low-dose GHB (rat [2]): NCS-382 prevents both neurological damage and working- memory impairment induced by low-dose GHB.
- half-life (in vivo; C57/B6, brain, 100 mg/kg i.p., read-out: Brain t 1/2 (converted)): 58 min
- half-life (in vivo; C57/B6, brain, 300 mg/kg i.p., read-out: Brain t 1/2 (converted)): 53 min
- half-life (in vivo; C57/B6, brain, 500 mg/kg i.p., read-out: Brain t 1/2 (converted)): 45.7 min
- Kp (in vivo; 100 mg/kg i.p.): 1.2
- Kp (in vivo; 300 mg/kg i.p.): 0.72
- Kp (in vivo; 500 mg/kg i.p.): 1.8
- half-life (in vivo; C57/B6, kidney, 100 mg/kg i.p., read-out: Kidney t 1/2 (converted)): 18.5 min
- AUC (in vivo; C57/B6, serum, 100 mg/kg i.p.): 119 ± 38 µM·h
- CL/F (in vivo; C57/B6, serum, 100 mg/kg i.p.): 63.3 mL/min/kg
- Cmax (in vivo; C57/B6, serum, 100 mg/kg i.p.): 241 ± 106 µM
- half-life (in vivo; C57/B6, serum, 100 mg/kg i.p., read-out: Serum t 1/2 (converted)): 14.6 min
- AUC (in vivo; C57/B6, serum, 300 mg/kg i.p.): 436 ± 42 µM·h
- CL/F (in vivo; C57/B6, serum, 300 mg/kg i.p.): 52.5 mL/min/kg
- Cmax (in vivo; C57/B6, serum, 300 mg/kg i.p.): 374 ± 49 µM
- half-life (in vivo; C57/B6, serum, 300 mg/kg i.p., read-out: Serum t 1/2 (converted)): 28.1 min
- AUC (in vivo; C57/B6, serum, 500 mg/kg i.p.): 717 ± 83 µM·h
- CL/F (in vivo; C57/B6, serum, 500 mg/kg i.p.): 53.2 mL/min/kg
- Cmax (in vivo; C57/B6, serum, 500 mg/kg i.p.): 451 ± 49 µM
- half-life (in vivo; C57/B6, serum, 500 mg/kg i.p., read-out: Serum t 1/2 (converted)): 41 min
- Serum V/F (in vivo; 100 mg/kg i.p.): 2.62 L/kg
- time after administration up to which detectable in sera (in vivo; 100 mg/kg i.p.): up to 4 h
- time after administration up to which quantifiable in brain (in vivo; 100 mg/kg i.p.): up to 8 h
- time after administration up to which quantifiable in kidney (in vivo; 100 mg/kg i.p.): up to 4 h
- time after administration up to which quantifiable in liver (in vivo; 100 mg/kg i.p.): up to 2 h
- time after administration up to which quantifiable in sera (in vivo; 100 mg/kg i.p.): up to 2 h
- Brain AUC (in vivo; [3]): 139 ± 60 µM·h
- Brain Cmax (in vivo; [3]): 60 ± 9.5 µM
- Kidney AUC (in vivo; [3]): 24.5 ± 5.3 µM·h
- Kidney Cmax (in vivo; [3]): 23.6 ± 3.0 µM
- Liver AUC (in vivo; [3]): 1150 ± 595 µM·h
- Liver Cmax (in vivo; [3]): 1695 ± 2030 µM
- Serum V/F (in vivo; 300 mg/kg i.p.): 2.93 L/kg
- Brain AUC (in vivo; [4]): 313 ± 33 µM·h
- Brain Cmax (in vivo; [4]): 141 ± 45 µM
- Serum V/F (in vivo; 500 mg/kg i.p.): 4.25 L/kg
- Brain AUC (in vivo; [5]): 1280 ± 175 µM·h
- Brain Cmax (in vivo; [5]): 530 ± 70 µM
